≈ marks a conversion by molar mass, not a printed value.

The record followed here is patent publication US11135234B2, “Effective aminoglycoside antibiotic for multidrug-resistant bacteria” (MICROBIAL CHEMISTRY RESEARCH FOUNDATION, priority 2015, dated 2021).

In experiment [1] the test system is S. aureus RN4220/pMS520. Put plainly: MIC, agar plate dilution method, S. aureus RN4220/pMS520. Type of experiment: cell-based, Staphylococcus aureus. To be noted: for MIC: Staphylococcus aureus, MRSA, read-out: minimal inhibitory concentration (MIC), S. aureus RN4220/pMS520, MRSA. In a few lines: (§1)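 Agar plate dilution per Japan Society of Chemotherapy standard; read-out = MIC in μg/mL.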

Experiment [2] relates to S. marcescens TH-0447. Description: MIC, agar plate dilution method, S. marcescens TH-0447. The experiment is classed as cell-based, Serratia marcescens. To be noted: for MIC: Serratia marcescens, TH0447, S. marcescens TH-0447, AMK-resistant, read-out: minimal inhibitory concentration (MIC). In a few lines: as §1
For experiment [3], the system named is P. aeruginosa PAO1/GN315. Description: MIC, agar plate dilution method, P. aeruginosa PAO1/GN315. The experiment is classed as cell-based, Pseudomonas aeruginosa. To be noted: for MIC: Pseudomonas aeruginosa, read-out: minimal inhibitory concentration (MIC), P. aeruginosa PAO1/GN315, AMK-resistant. In a few lines:
as §1

Experiment [4] has as its system A. baumannii ATCC BAA-1710. Put plainly: MIC, agar plate dilution method, A. baumannii ATCC BAA-1710. The experiment is classed as cell-based, Acinetobacter baumannii. To be noted: for MIC: Acinetobacter baumannii, ATCCBAA1710, A. baumannii ATCC BAA-1710, MDRA, read-out: minimal inhibitory concentration (MIC). In a few lines:
as §1

For experiment [5], the system named is K. pneumoniae ATCC BAA-2146. Put plainly: MIC, agar plate dilution method, K. pneumoniae ATCC BAA-2146. Type of experiment: cell-based, Klebsiella pneumoniae. To be noted: for MIC: Klebsiella pneumoniae, ATCCBAA2146, K. pneumoniae ATCC BAA-2146, NDM-producing strain, read-out: minimal inhibitory concentration (MIC). The essentials: as §1
Experiment [6] deals with P. aeruginosa MSC01035. Put plainly: MIC, agar plate dilution method, P. aeruginosa MSC01035. Type of experiment: cell-based, Pseudomonas aeruginosa. To be noted: P. aeruginosa MSC01035, ABK-resistant; for MIC: Pseudomonas aeruginosa, read-out: minimal inhibitory concentration (MIC). In a few lines:
as §1

Experiment [7] has as its system K. pneumoniae ATCC BAA-1705. Description: MIC, agar plate dilution method, K. pneumoniae ATCC BAA-1705. To be noted: for MIC: Klebsiella pneumoniae, ATCCBAA1705, K. pneumoniae ATCC BAA-1705, KPC-producing strain, read-out: minimal inhibitory concentration (MIC). Type of experiment: cell-based, Klebsiella pneumoniae. In a few lines:
as §1

The subject of experiment [8] is S. aureus MF490. Put plainly: MIC, agar plate dilution method, S. aureus MF490. The experiment is classed as cell-based, Staphylococcus aureus. To be noted: for MIC: Staphylococcus aureus, MRSA, read-out: minimal inhibitory concentration (MIC). The essentials: as §1
Experiment [9] has as its system P. aeruginosa PAO1. Description: MIC, agar plate dilution method, P. aeruginosa PAO1. The experiment is classed as cell-based, Pseudomonas aeruginosa. To be noted: for MIC: Pseudomonas aeruginosa, PAO1, P. aeruginosa PAO1, Sensitive bacterium, read-out: minimal inhibitory concentration (MIC). The essentials: as §1
Experiment [10] concerns S. marcescens GN6944. Description: MIC, agar plate dilution method, S. marcescens GN6944. The experiment is classed as cell-based, Serratia marcescens. To be noted: S. marcescens GN6944, GM-resistant; for MIC: Serratia marcescens, read-out: minimal inhibitory concentration (MIC). In a few lines: as §1
Experiment [11] concerns E. coli JM109/pMW218. Put plainly: MIC, agar plate dilution method, E. coli JM109/pMW218. The experiment is classed as cell-based, Escherichia coli. To be noted: for MIC: Escherichia coli, JM109/PMW218, E. coli JM109/pMW218, Sensitive bacterium, read-out: minimal inhibitory concentration (MIC). The essentials:
as §1

In experiment [12] the test system is E. faecium ATCC19434. Description: MIC, agar plate dilution method, E. faecium ATCC19434. The experiment is classed as cell-based, Enterococcus faecium. To be noted: for MIC: Enterococcus faecium, ATCC19434, E. faecium ATCC19434, read-out: minimal inhibitory concentration (MIC). The essentials: as §1
For experiment [13], the system named is P. aeruginosa MSC17707. Put plainly: MIC, agar plate dilution method, P. aeruginosa MSC17707. The experiment is classed as cell-based, Pseudomonas aeruginosa. To be noted: for MIC: Pseudomonas aeruginosa, MSC17707, P. aeruginosa MSC17707, AMK-resistant, read-out: minimal inhibitory concentration (MIC). The essentials: as §1
Experiment [14] relates to S. aureus RN4220. Description: MIC, agar plate dilution method, S. aureus RN4220. Type of experiment: cell-based, Staphylococcus aureus. To be noted: for MIC: Staphylococcus aureus, RN4220, S. aureus RN4220, Sensitive bacterium, read-out: minimal inhibitory concentration (MIC). The essentials:
as §1

With `CNC1C(O[C@H]2OC(C)[C@@H](NC(=N)N)[C@H](O)C2O)O[C@H]2CC(N)[C@@H](O[C@H]3CC(O)[C@H](N)CC3N)OC2C1O` (stereo partly shown) [Compound S1-q, 4″-deamino-5,6″-dideoxy-4″-guanidinoapramycin], the MIC came out at 1 µg/mL (≈ 1.82 µM) in [1]; 4 µg/mL (≈ 7.28 µM) in experiment [2]; 8 µg/mL (≈ 14.6 µM) in experiment [3]; 16 µg/mL (≈ 29.1 µM) in experiment [4]; 0.5 µg/mL (≈ 0.91 µM) in experiment [5]; 8 µg/mL (≈ 14.6 µM) in experiment [6]. The MIC in [7] was determined as 1 µg/mL (≈ 1.82 µM); in experiment [8], 4 µg/mL (≈ 7.28 µM); in experiment [9], 4 µg/mL (≈ 7.28 µM); in experiment [10], 4 µg/mL (≈ 7.28 µM); in experiment [11], 0.5 µg/mL (≈ 0.91 µM); in experiment [12], 4 µg/mL (≈ 7.28 µM). Further, the values for the MIC in experiment [13] and in experiment [14] were 8 µg/mL (≈ 14.6 µM) and 1 µg/mL (≈ 1.82 µM), respectively.

On to `CN[C@@H]1[C@@H](O[C@H]2O[C@H](CO)[C@@H](NC)[C@H](O)[C@H]2O)O[C@H]2C[C@@H](N)[C@@H](O[C@H]3CC[C@H](N)C[C@@H]3N)O[C@@H]2[C@@H]1O` [Compound T2-a, 5,6-dideoxy-4″-N-methylapramycin], for which the “minimal inhibitory concentration (MIC)” value in experiment [1] (S. aureus RN4220/pMS520, MRSA) was 1 µg/mL (≈ 1.92 µM); in [2] (S. marcescens TH-0447, AMK-resistant), 4 µg/mL (≈ 7.67 µM); in [3] (P. aeruginosa PAO1/GN315, AMK-resistant), 4 µg/mL (≈ 7.67 µM); in [4] (A. baumannii ATCC BAA-1710, MDRA), 4 µg/mL (≈ 7.67 µM); in experiment [5] (K. pneumoniae ATCC BAA-2146, NDM-producing strain) it was 1 µg/mL (≈ 1.92 µM); in experiment [6] it was 4 µg/mL (≈ 7.67 µM). Further, the “minimal inhibitory concentration (MIC)” value in experiment [7] (K. pneumoniae ATCC BAA-1705, KPC-producing strain) came to 1 µg/mL (≈ 1.92 µM); in experiment [8] (S. aureus MF490, MRSA), 8 µg/mL (≈ 15.3 µM); in [9] (P. aeruginosa PAO1, Sensitive bacterium), 4 µg/mL (≈ 7.67 µM); in [10], 4 µg/mL (≈ 7.67 µM); in experiment [11] (E. coli JM109/pMW218, Sensitive bacterium), 0.5 µg/mL (≈ 0.959 µM); in experiment [12] (E. faecium ATCC19434) it was 8 µg/mL (≈ 15.3 µM). Besides, the “minimal inhibitory concentration (MIC)” value is 4 µg/mL (≈ 7.67 µM) in experiment [13] (P. aeruginosa MSC17707, AMK-resistant) and 2 µg/mL (≈ 3.83 µM) in experiment [14] (S. aureus RN4220, Sensitive bacterium).

Regarding `CNC1C(O[C@H]2OC(CO)[C@@H](NCCN)[C@H](O)C2O)O[C@H]2CC(N)[C@@H](O[C@H]3CC[C@H](N)CC3N)OC2C1O` (stereo partly shown) [Compound T2-b, 4″-N-(2-aminoethyl)-5,6-dideoxyapramycin], the MIC in [1] was found to be 4 µg/mL (≈ 7.26 µM); in experiment [2], 8 µg/mL (≈ 14.5 µM); in experiment [3], 8 µg/mL (≈ 14.5 µM); in experiment [4] it was 8 µg/mL (≈ 14.5 µM); in [5], 2 µg/mL (≈ 3.63 µM); in experiment [6], 16 µg/mL (≈ 29.1 µM). The MIC was 2 µg/mL (≈ 3.63 µM) in experiment [7]; 8 µg/mL (≈ 14.5 µM) in experiment [8]; 8 µg/mL (≈ 14.5 µM) in experiment [9]; 8 µg/mL (≈ 14.5 µM) in [10]; 1 µg/mL (≈ 1.82 µM) in [11]; 16 µg/mL (≈ 29.1 µM) in experiment [12]. Besides, the MIC in experiment [13] was 8 µg/mL (≈ 14.5 µM); in experiment [14], 4 µg/mL (≈ 7.26 µM).

Regarding `CNC1C(O[C@H]2OC(CO)[C@@H](NCCCN)[C@H](O)C2O)O[C@H]2CC(N)[C@@H](O[C@H]3CC[C@H](N)CC3N)OC2C1O` (stereo partly shown) [Compound T2-c, 4″-N-(3-aminopropyl)-5,6-dideoxyapramycin], the MIC in experiment [1] worked out at 2 µg/mL (≈ 3.54 µM); in [2], 8 µg/mL (≈ 14.2 µM); in [3] it was 4 µg/mL (≈ 7.08 µM); in [4] it was 4 µg/mL (≈ 7.08 µM); in experiment [5], 1 µg/mL (≈ 1.77 µM); in [6], 8 µg/mL (≈ 14.2 µM). For the same compound, the MIC in experiment [7] came to 1 µg/mL (≈ 1.77 µM); in experiment [8], 8 µg/mL (≈ 14.2 µM); in [9], 4 µg/mL (≈ 7.08 µM); in [10] it was 4 µg/mL (≈ 7.08 µM); in experiment [11] it was 1 µg/mL (≈ 1.77 µM); in experiment [12], 8 µg/mL (≈ 14.2 µM). For the same compound, the MIC in experiment [13] is 4 µg/mL (≈ 7.08 µM); in [14] it was 2 µg/mL (≈ 3.54 µM).

For the compound `CNC1C(O[C@H]2OC(CO)[C@@H](NC(CN)CN)[C@H](O)C2O)O[C@H]2CC(N)[C@@H](O[C@H]3CC[C@H](N)CC3N)OC2C1O` (stereo partly shown) [Compound T2-d, 4″-N-(1,3-diaminopropan-2-yl)-5,6-dideoxyapramycin], the MIC in experiment [1] was 1 µg/mL (≈ 1.73 µM); in [2], 8 µg/mL (≈ 13.8 µM); in experiment [3], 4 µg/mL (≈ 6.9 µM); in [4], 8 µg/mL (≈ 13.8 µM); in experiment [5], 2 µg/mL (≈ 3.45 µM); in experiment [6] it was 8 µg/mL (≈ 13.8 µM). Moreover, the MIC was 2 µg/mL (≈ 3.45 µM) in [7]; 4 µg/mL (≈ 6.9 µM) in experiment [8]; 4 µg/mL (≈ 6.9 µM) in [9]; 8 µg/mL (≈ 13.8 µM) in experiment [10]; 1 µg/mL (≈ 1.73 µM) in experiment [11]; 4 µg/mL (≈ 6.9 µM) in experiment [12]. For the same compound, the MIC in experiment [13] amounted to 8 µg/mL (≈ 13.8 µM); in experiment [14], 2 µg/mL (≈ 3.45 µM).
